The values below come from PMC6155691, “Synthesis and Biological Evaluation of Novel 8-Morpholinoimidazo[1,2-a]pyrazine Derivatives Bearing Phenylpyridine/Phenylpyrimidine-Carboxamides” (Molecules : A Journal of Synthetic Chemistry and Natural …, 2017).

The subject of data set [1] is A549 cell line (lung cancer). Nature of the data set: MTT cytotoxicity assay, A549. It counts as cell-based. The following applies: Homo sapiens, 72 h, average of two separate determinations, NA: No Activity. As for the experimental part: (§1) The target compounds 12a–g, 13a–g and 14a–g were evaluated for their in vitro cytotoxicity against three cancer cell lines (A549, PC-3 and MCF-7) by the standard MTT assay, with compound II and GDC-0941 as positive controls. […] The results expressed as inhibition rates or IC50 values are summarized in Table 1 and Table 2, where the values are the average of at least two independent experiments.
(§2) The in vitro cytotoxic activity of all the compounds 12a–g, 13a–g and 14a–g was evaluated with the A549, PC-3 and MCF-7 cell lines by the standard MTT assay, with compounds II and GDC-0941 as positive controls. The cancer cell lines were cultured in minimum essential medium (MEM) supplement with 10% fetal bovine serum (FBS). Approximately 4 × 10^3 cells, suspended in MEM medium, were plated onto each well of a 96-well plate and incubated in 5% CO2 at 37 °C for 24 h. The test compounds at indicated final concentrations were added to the culture medium and the cell cultures were continued for 72 h. Fresh MTT was added to each well at a terminal concentration of 5 μg/mL and incubated with cells at 37 °C for 4 h. The formazan crystals were dissolved in 100 μL of DMSO in each well, and the absorbance at 492 nm (for the MTT formazan) and 630 nm (for the reference wavelength) was measured with an ELISA reader. All of the compounds were tested three times in each of the cell lines. The results expressed as inhibition rates or IC50 (half-maximal inhibitory concentration) were the averages of two determinations and calculated by using the Bacus Laboratories Incorporated Slide Scanner (Bliss) software (the Bacus Laboratories Inc. Slide Scanner (BLISS) system, Lombard, IL, USA).

In data set [2] the test system is PC-3 cell line (prostate cancer). Nature of the data set: MTT cytotoxicity assay, PC-3. It counts as cell-based. The following applies: Homo sapiens, 72 h, average of two separate determinations, NA: No Activity. How it is done:
as §1, §2

Data set [3] deals with MCF-7 cell line (breast cancer). Description: MTT cytotoxicity assay, MCF-7. It counts as cell-based. The following applies: Homo sapiens, MCF7, 72 h, average of two separate determinations, NA: No Activity. How it is done: as §1, §2
Data set [4] deals with PI3Kα kinase (Homo sapiens, UniProt P42336). Nature of the data set: Kinase-Glo Luminescent Kinase Assay, PI3Kα. It counts as biochemical.
The subject of data set [5] is PI3Kα. The following applies: cited from earlier work.
For data set [6], the system named is mTOR. Details: method as in PMID 17339109. The following applies: read-out: IC50 against mTOR; cited from earlier work.

Structures are written as SMILES. Like-named read-outs stand apart in the source and are kept apart here.

Chain of PI3Kα kinase (P42336 whole entry): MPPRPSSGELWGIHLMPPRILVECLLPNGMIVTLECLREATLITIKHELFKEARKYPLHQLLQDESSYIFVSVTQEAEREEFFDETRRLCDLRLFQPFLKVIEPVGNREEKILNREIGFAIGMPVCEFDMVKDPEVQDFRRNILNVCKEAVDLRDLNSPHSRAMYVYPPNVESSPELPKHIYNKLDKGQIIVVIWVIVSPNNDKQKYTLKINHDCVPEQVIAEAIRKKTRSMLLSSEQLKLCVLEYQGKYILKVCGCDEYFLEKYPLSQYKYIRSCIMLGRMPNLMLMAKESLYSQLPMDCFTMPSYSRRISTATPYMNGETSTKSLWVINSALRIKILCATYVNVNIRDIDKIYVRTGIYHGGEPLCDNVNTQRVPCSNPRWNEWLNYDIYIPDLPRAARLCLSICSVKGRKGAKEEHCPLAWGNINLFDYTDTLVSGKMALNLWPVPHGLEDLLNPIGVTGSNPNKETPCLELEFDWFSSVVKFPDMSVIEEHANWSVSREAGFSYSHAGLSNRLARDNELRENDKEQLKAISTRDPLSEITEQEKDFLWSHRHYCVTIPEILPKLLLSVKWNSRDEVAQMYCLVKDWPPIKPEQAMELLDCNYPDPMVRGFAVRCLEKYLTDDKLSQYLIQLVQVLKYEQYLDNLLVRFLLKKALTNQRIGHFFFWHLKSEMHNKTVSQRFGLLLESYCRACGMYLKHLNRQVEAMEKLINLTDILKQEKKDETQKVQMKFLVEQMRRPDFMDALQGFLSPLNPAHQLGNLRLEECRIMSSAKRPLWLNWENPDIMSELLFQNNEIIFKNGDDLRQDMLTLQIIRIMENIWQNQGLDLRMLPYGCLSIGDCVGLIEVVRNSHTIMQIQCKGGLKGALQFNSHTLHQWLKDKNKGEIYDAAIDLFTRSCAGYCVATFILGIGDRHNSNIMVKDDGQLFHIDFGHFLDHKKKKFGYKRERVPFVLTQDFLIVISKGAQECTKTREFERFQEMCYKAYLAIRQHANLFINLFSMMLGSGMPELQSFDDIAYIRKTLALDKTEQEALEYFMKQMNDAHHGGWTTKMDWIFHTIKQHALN
Chain of PI3Kα kinase (P27986 whole entry partner): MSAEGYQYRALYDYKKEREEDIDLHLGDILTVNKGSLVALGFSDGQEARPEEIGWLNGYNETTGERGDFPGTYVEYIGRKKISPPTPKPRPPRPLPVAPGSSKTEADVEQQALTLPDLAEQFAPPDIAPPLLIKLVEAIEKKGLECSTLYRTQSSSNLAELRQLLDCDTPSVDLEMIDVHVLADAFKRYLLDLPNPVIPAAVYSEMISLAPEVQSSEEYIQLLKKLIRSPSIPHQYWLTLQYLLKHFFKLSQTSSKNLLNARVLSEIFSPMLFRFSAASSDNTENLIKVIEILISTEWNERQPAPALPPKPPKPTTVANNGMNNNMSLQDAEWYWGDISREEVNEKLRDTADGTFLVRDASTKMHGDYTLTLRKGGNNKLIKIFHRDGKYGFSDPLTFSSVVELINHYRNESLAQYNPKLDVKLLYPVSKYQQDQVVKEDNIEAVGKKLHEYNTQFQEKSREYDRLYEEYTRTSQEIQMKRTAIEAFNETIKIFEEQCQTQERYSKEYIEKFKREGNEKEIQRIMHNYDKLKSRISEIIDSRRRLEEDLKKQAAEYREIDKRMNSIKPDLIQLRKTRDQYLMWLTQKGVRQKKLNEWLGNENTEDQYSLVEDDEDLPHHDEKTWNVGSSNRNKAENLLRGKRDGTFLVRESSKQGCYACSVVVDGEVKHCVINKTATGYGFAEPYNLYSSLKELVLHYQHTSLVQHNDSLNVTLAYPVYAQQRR

In turn, `O=C(Nc1ccc(-c2cn3ccnc3c(N3CCOCC3)n2)cc1)c1ccc(-c2ccccc2)cn1` [12a] showed a melting point of 268 to 270 °C. In data set [1], 58.7 ± 1.99 µM corresponded to half-maximal inhibition (IC50). In data set [2], the IC50 is 50.3 ± 2.04 µM.
As to `O=C(Nc1ccc(-c2cn3ccnc3c(N3CCOCC3)n2)cc1)c1ccc(-c2cccc(F)c2)cn1` [12b, 5-(3-Fluorophenyl)-N-(4-(8-morpholinoimidazo[1,2-a]pyrazin-6-yl)phenyl)picolinamide], the melting point was in the range of 261 to 264 °C.
The molecule `O=C(Nc1ccc(-c2cn3ccnc3c(N3CCOCC3)n2)cc1)c1ccc(-c2ccc(F)cc2F)cn1` [12c, 5-(2,4-Difluorophenyl)-N-(4-(8-morpholinoimidazo[1,2-a]pyrazin-6-yl)phenyl)picolinamide] came in with a melting point of 255 to 257 °C.
Molecule `O=C(Nc1ccc(-c2cn3ccnc3c(N3CCOCC3)n2)cc1)c1ccc(-c2ccc(C(F)(F)F)cc2)cn1` [12d, N-(4-(8-Morpholinoimidazo[1,2-a]pyrazin-6-yl)phenyl)-5-(4-(trifluoromethyl)phenyl)picolinamide] returned a melting point of 233 to 235 °C. The half-inhibitory concentration (IC50) in data set [1] was found to be 15.3 ± 0.88 µM. Moreover, in data set [2], 69.7 ± 1.13 µM corresponded to half-maximal inhibition (IC50).
Turning to `COc1ccc(-c2ccc(C(=O)Nc3ccc(-c4cn5ccnc5c(N5CCOCC5)n4)cc3)nc2)cc1` [12e, 5-(4-Methoxyphenyl)-N-(4-(8-morpholinoimidazo[1,2-a]pyrazin-6-yl)phenyl)picolinamide], the melting point fell in the range of 255 to 257 °C.
As for `Cc1cccc(-c2ccc(C(=O)Nc3ccc(-c4cn5ccnc5c(N5CCOCC5)n4)cc3)nc2)c1` [12f, N-(4-(8-Morpholinoimidazo[1,2-a]pyrazin-6-yl)phenyl)-5-(m-tolyl)picolinamide], the melting point lay within 241 to 243 °C. This molecule also registered a concentration for half-maximal inhibition (IC50) in data set [1] of 19.1 ± 1.1 µM. Also, in data set [2], the IC50 was 26.8 ± 1.47 µM.
For `Cc1ccc(-c2ccc(C(=O)Nc3ccc(-c4cn5ccnc5c(N5CCOCC5)n4)cc3)nc2)cc1` [12g, N-(4-(8-Morpholinoimidazo[1,2-a]pyrazin-6-yl)phenyl)-5-(p-tolyl)picolinamide], in that order: 258 to 260 °C, 68.1 ± 0.89 µM and 42.3 ± 0.86 µM.
For `O=C(Nc1ccc(-c2cn3ccnc3c(N3CCOCC3)n2)cc1)c1cc(-c2ccccc2)ccn1` [13a, N-(4-(8-Morpholinoimidazo[1,2-a]pyrazin-6-yl)phenyl)-4-phenylpicolinamide], the melting point fell in the range of 261 to 262 °C.
`O=C(Nc1ccc(-c2cn3ccnc3c(N3CCOCC3)n2)cc1)c1cc(-c2cccc(F)c2)ccn1` [13b, 4-(3-Fluorophenyl)-N-(4-(8-morpholinoimidazo[1,2-a]pyrazin-6-yl)phenyl)picolinamide] showed a melting point of 237 to 239 °C.
The molecule `O=C(Nc1ccc(-c2cn3ccnc3c(N3CCOCC3)n2)cc1)c1cc(-c2ccc(F)cc2F)ccn1` [13c, 4-(2,4-Difluorophenyl)-N-(4-(8-morpholinoimidazo[1,2-a]pyrazin-6-yl)phenyl)picolinamide] showed a melting point of 266 to 267 °C.
The molecule `O=C(Nc1ccc(-c2cn3ccnc3c(N3CCOCC3)n2)cc1)c1cc(-c2ccc(C(F)(F)F)cc2)ccn1` [13d, N-(4-(8-Morpholinoimidazo[1,2-a]pyrazin-6-yl)phenyl)-4-(4-(trifluoromethyl)phenyl)picolinamide] yielded a melting point of 269 to 272 °C. In data set [1], this molecule had an IC50 of 42 ± 1.49 µM. This molecule also yielded an IC50 in data set [2] of 55.6 ± 1.32 µM. Further, in data set [3], the IC50 stood at 62.5 ± 1.99 µM.
On the same counts, the results for `COc1ccc(-c2ccnc(C(=O)Nc3ccc(-c4cn5ccnc5c(N5CCOCC5)n4)cc3)c2)cc1` [13e, 4-(4-Methoxyphenyl)-N-(4-(8-morpholinoimidazo[1,2-a]pyrazin-6-yl)phenyl)picolinamide] are 257 to 260 °C, 23.9 ± 0.81 µM, 59.7 ± 2.22 µM and 74.9 ± 1.14 µM.
Consider `Cc1cccc(-c2ccnc(C(=O)Nc3ccc(-c4cn5ccnc5c(N5CCOCC5)n4)cc3)c2)c1` [13f, N-(4-(8-Morpholinoimidazo[1,2-a]pyrazin-6-yl)phenyl)-4-(m-tolyl)picolinamide], for which the melting point was 233 to 234 °C. Besides, the IC50 in data set [1] came out at 10.5 ± 0.82 µM. Moreover, the half-inhibitory concentration (IC50) in data set [2] is 65.61 ± 0.52 µM. The midpoint of inhibition in data set [3], the IC50, lay at 74.2 ± 1.86 µM.
Regarding `Cc1ccc(-c2ccnc(C(=O)Nc3ccc(-c4cn5ccnc5c(N5CCOCC5)n4)cc3)c2)cc1` [13g, N-(4-(8-Morpholinoimidazo[1,2-a]pyrazin-6-yl)phenyl)-4-(p-tolyl)picolinamide], the melting point fell in the range of 271 to 273 °C. The molecule further registered a half-inhibitory concentration (IC50) in data set [1] of 11.2 ± 1.08 µM. The molecule further yielded an IC50 in data set [3] of 7.89 ± 0.81 µM.
`O=C(Nc1ccc(-c2cn3ccnc3c(N3CCOCC3)n2)cc1)c1cc(-c2ccccc2)ncn1` [14a, N-(4-(8-Morpholinoimidazo[1,2-a]pyrazin-6-yl)phenyl)-6-phenylpyrimidine-4-carboxamide] registered a melting point of 272 to 275 °C. For the same molecule, half-maximal inhibition in data set [1] (IC50) was put at 10.8 ± 1.62 µM.
In turn, `Cc1ccc(-c2cc(C(=O)Nc3ccc(-c4cn5ccnc5c(N5CCOCC5)n4)cc3)ncn2)cc1` [14b, N-(4-(8-Morpholinoimidazo[1,2-a]pyrazin-6-yl)phenyl)-6-(p-tolyl)pyrimidine-4-carboxamide] gave a melting point of 222 to 225 °C. The same molecule gave an IC50 in data set [1] of 8.88 ± 0.97 µM. This molecule also came in with a 50% inhibitory concentration (IC50) in data set [2] of 25 ± 1.19 µM. Also, in data set [3], the concentration for half-maximal inhibition (IC50) was 6.69 ± 2.04 µM. For the same molecule, the inhibition at 10 µM in data set [4] (at 10 μM, Kinase-Glo, average of two separate determinations, read-out: PI3Kα 10 μM Inhibitory %) stood at 58 ± 4.4%.
`COc1ccc(-c2cc(C(=O)Nc3ccc(-c4cn5ccnc5c(N5CCOCC5)n4)cc3)ncn2)cc1` [14c, 6-(4-Methoxyphenyl)-N-(4-(8-morpholinoimidazo[1,2-a]pyrazin-6-yl)phenyl)pyrimidine-4-carboxamide] had a melting point of 269 to 271 °C. Further, the half-inhibitory concentration (IC50) in data set [1] was 6.39 ± 1.04 µM. In data set [2], this molecule displayed a 50% inhibitory concentration (IC50) of 12.7 ± 0.95 µM. In addition, in data set [3], the IC50 was determined as 10.2 ± 1.62 µM. This molecule showed a concentration for half-maximal inhibition (IC50) in data set [4] (Kinase-Glo, average of two separate determinations) of 1.25 ± 0.13 µM. In addition, the “fold more active than lead compound II against PI3Kα kinase” value in data set [4] (ratio of IC50 values, 7.39 μM vs 1.25 μM) turned out to be 6 fold.
As to `O=C(Nc1ccc(-c2cn3ccnc3c(N3CCOCC3)n2)cc1)c1cc(-c2ccc(Br)cc2)ncn1` [14d, 6-(4-Bromophenyl)-N-(4-(8-morpholinoimidazo[1,2-a]pyrazin-6-yl)phenyl)pyrimidine-4-carboxamide], the melting point lay within 221 to 223 °C. In addition, 14.4 ± 1.01 µM corresponded to half-maximal inhibition in data set [1] (IC50). Further, the IC50 in data set [2] was 37.1 ± 0.97 µM.
With `O=C(Nc1ccc(-c2cn3ccnc3c(N3CCOCC3)n2)cc1)c1cc(-c2ccc(Cl)cc2)ncn1` [14e, 6-(4-Chlorophenyl)-N-(4-(8-morpholinoimidazo[1,2-a]pyrazin-6-yl)phenyl)pyrimidine-4-carboxamide], the melting point lay in the range of 235 to 237 °C. For the same molecule, in data set [1], the 50% inhibitory concentration (IC50) came to 17.4 ± 1.01 µM.
Turning to `O=C(Nc1ccc(-c2cn3ccnc3c(N3CCOCC3)n2)cc1)c1cc(-c2ccc(F)cc2)ncn1` [14f, 6-(4-Fluorophenyl)-N-(4-(8-morpholinoimidazo[1,2-a]pyrazin-6-yl)phenyl)pyrimidine-4-carboxamide], the melting point was in the range of 259 to 260 °C. Also, in data set [1], the IC50 was determined as 58.2 ± 4.67 µM. The same molecule returned an IC50 in data set [3] of 47.1 µM.
On to `O=C(Nc1ccc(-c2cn3ccnc3c(N3CCOCC3)n2)cc1)c1cc(-c2ccc(C(F)(F)F)cc2)ncn1` [14g, N-(4-(8-Morpholinoimidazo[1,2-a]pyrazin-6-yl)phenyl)-6-(4-(trifluoromethyl)phenyl)pyrimidine-4-carboxamide], for which the melting point was 278 to 281 °C. This molecule registered a half-maximal inhibitory concentration (IC50) in data set [2] of 96.6 ± 2.58 µM.
With `COCCNC(=O)c1nc2c(N3CCOCC3)nc(-c3cnc(N)nc3)cn2c1C` [ETP46992], in data set [5] (read-out: IC50 PI3Kα), the concentration for half-maximal inhibition (IC50) was […].
For `CS(=O)(=O)N1CCN(Cc2cc3nc(-c4cccc5[nH]ncc45)nc(N4CCOCC4)c3s2)CC1` [GDC-0941, 2-(1H-Indazol-4-yl)-6-(4-methanesulfonyl-piperazin-1-ylmethyl)-4-morpholin-4-yl-thieno[3,2-d]pyrimidine, reference compound], the 50% inhibitory concentration (IC50) in data set [1] came to 6.99 ± 0.21 µM; in data set [2], 0.2 ± 0.08 µM; in data set [3], 0.07 ± 0.03 µM.
As to `Oc1cccc(-c2nc(N3CCOCC3)c3oc4ncccc4c3n2)c1` [PI-103], the figures for the 50% inhibitory concentration (IC50) in data set [5] (read-out: IC50 against PI3Kα) and in data set [6] were […] and […], respectively.
